Test results from the NIST ThermoML archive (doi:10.1021/je049801y).
± gives the expanded uncertainty stated by the source.

settings: Crystal

Compound | Normal melting temperature
O=C(O)c1cccc(C(=O)O)c1 [1,3-benzenedicarboxylic acid] | 348.1 ± 1 °C
O=C(O)c1ccc(C(=O)O)cc1 [1,4-benzenedicarboxylic acid] | 430.0 ± 1 °C
Cc1ccc(C(=O)O)cc1 [4-methylbenzoic acid] | 182.0 ± 1 °C
O=C(O)c1ccccc1 [benzoic acid] | 122.4 ± 1 °C
